# Patent US20090041753A1, “Cytokine signaling” (priority 2006, published 2009)
# System: purified astrocyte cultures
# Test: CXCL1 addition to purified spinal cord astrocyte cultures, CSPG by immunocytochemistry and dot blot
# Type: cell-based
# Conditions: CXCL1 0.5 ng/ml, 3 days
# Protocol: Cells were treated with CXCL1 (0.5 ng/ml) for 3 days and assayed for CSPG deposition onto substrate by immunocytochemistry and released into medium. […] GFAP (red), CSPG (green) (FIG. 34) For the culture studies, cultures of spinal cord astrocytes were assayed for basal levels of mRNA expression of CXCL1 and CXCR2 by RT-PCR (FIG. 33). The effect of 3 day CXCL1 protein addition (0.5 ng/ml) on CSPG protein expression was conducted on spinal cord astrocyte cultures as well as by immunocytochemistry and dot blot assays to analyze secreted and bound CSPG (FIG. 34).
substance,measurement,value
CXCL1: soluble secreted chemoattractive cytokine of the ELR positive family of CXC chemokines; preferred receptor CXCR2,"CSPG expression (deposition onto substrate, immunocytochemistry)",induces CSPG expression
same,CSPG released into medium (dot blot),increased CSPG
same,astrocyte morphology,changes morphology
